# Experimental data taken from ChEMBL document CHEMBL1124880 (J Med Chem, 1990).
# What was measured:
# Rattus norvegicus = organism: Rattus norvegicus; experiment: Minimal effective dose in an rat anti-immobility effect using behavioral despair test; format: functional; details: read-out: MED
# Adenosine receptor A1 = biological target: T1, Adenosine receptor A1 (Rattus norvegicus, UniProt P25099); experiment: Binding affinity towards the adenosine A1 receptor in cerebral cortices of Sprague-Dawley male rats using [3H]CHA as radioligand.
# T1 sequence (P25099 whole entry): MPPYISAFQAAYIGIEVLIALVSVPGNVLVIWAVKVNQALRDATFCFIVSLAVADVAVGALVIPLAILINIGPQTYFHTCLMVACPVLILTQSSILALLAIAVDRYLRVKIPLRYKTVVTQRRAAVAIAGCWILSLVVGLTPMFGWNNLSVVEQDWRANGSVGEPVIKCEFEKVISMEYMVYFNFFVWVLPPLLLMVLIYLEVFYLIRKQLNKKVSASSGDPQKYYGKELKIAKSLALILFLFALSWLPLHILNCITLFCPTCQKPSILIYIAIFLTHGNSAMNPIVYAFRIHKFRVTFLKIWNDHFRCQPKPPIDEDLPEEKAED
# Adenosine A2 receptor = Adenosine A2 receptor (Rattus norvegicus, UniProt P29276+P30543)
Structure (SMILES),minimal effective dose (Rattus norvegicus) [mg/kg],IC50 (Adenosine receptor A1) [µM],IC50 (Adenosine A2 receptor) [µM]
CCc1nnc2c(N(CC)CC)nc3cc(Cl)ccc3n12,10,,
CCN(CC)c1nc2ccc(F)cc2n2c(C(F)(F)F)nnc12,> 32,,
CC(C)(C)Nc1nc2ccccc2n2cnnc12,> 32,19,
CC(=O)Nc1nc2cc(F)ccc2n2cnnc12,≤ 32,,
CCc1nnc2c(N3CCCC3)nc3ccccc3n12,> 3.2,10,
CCN(CC)c1nc2ccccc2n2c(-c3ccccc3)nnc12,1,,
Cc1nnc2c(NC(C)C)nc3ccccc3n12,10,0.85,
Clc1ccc2nc(N3CCNCC3)c3nncn3c2c1,> 32,,
CCc1nnc2c(N3CCCCC3)nc3ccccc3n12,10,3.5,
CCNc1nc2ccc(F)cc2n2c(CC)nnc12,3.2,0.7,
CCNc1nc2ccc(Cl)cc2n2c(C(F)(F)F)nnc12,≤ 32,,
CN1CCN(c2nc3ccccc3n3cnnc23)CC1,> 32,> 100,
CCc1nnc2c(NC(C)=O)nc3cc(Cl)ccc3n12,3.2,,
CCNc1nc2ccccc2n2c(C(C)C)nnc12,≤ 32,2.2,
CC(C)Nc1nc2ccccc2n2c(C(F)(F)F)nnc12,< 10,0.17,4.1
CCc1nnc2c(N3CCOCC3)nc3ccccc3n12,> 10,28,
O=C1CCCN1c1nc2ccccc2n2cnnc12,> 32,> 100,
Cc1nnc2c(N3CCCC3)nc3ccccc3n12,> 32,49,
CCc1nnc2c(N(C)C)nc3cc(Cl)c(Cl)cc3n12,3.2,,
CCc1nnc2c(NC(=O)C(C)(C)C)nc3ccc(Cl)cc3n12,≤ 32,,
c1ccc2c(c1)nc(N1CCCCC1)c1nncn12,> 32,100,
CCc1nnc2c(N(C(C)=O)C(C)=O)nc3ccccc3n12,3.2,9.3,
CC(C)Nc1nc2cc(F)c(F)cc2n2cnnc12,≤ 3.2,1.9,
CCN(CC)c1nc2ccccc2n2c(C(F)(F)F)nnc12,≤ 32,,
CCN(CC)c1nc2cc(Br)c(Br)cc2n2cnnc12,> 32,,

Structure (SMILES),minimal effective dose (Rattus norvegicus) [mg/kg],IC50 (Adenosine receptor A1) [µM],IC50 (Adenosine A2 receptor) [µM]
CCCN(CCC)c1nc2ccccc2n2cnnc12,> 32,≥ 100,
CC(=O)N(c1nc2cc(Cl)c(Cl)cc2n2cnnc12)C(C)C,> 32,,
CCc1nnc2c(N(C)C)nc3cc(Cl)ccc3n12,10,,
CCc1nnc2c(NC(C)=O)nc3cc(F)ccc3n12,≤ 3.2,,
CC(=O)Nc1nc2ccc(Cl)cc2n2c(C(F)(F)F)nnc12,≤ 3.2,0.63,
CCc1nnc2c(N3CCNCC3)nc3cc(Cl)c(Cl)cc3n12,≤ 32,,
CCc1nnc2c(NC(C)=O)nc3cc(OC)ccc3n12,> 32,,
CC(=O)N(c1nc2ccc(Cl)cc2n2cnnc12)C(C)C,≤ 32,,
CCC(=O)Nc1nc2ccc(Cl)cc2n2c(CC)nnc12,≤ 3.2,,
CCCc1nnc2c(N(CC)CC)nc3ccccc3n12,≤ 32,,
CC(=O)Nc1nc2ccc(Cl)cc2n2c(C)nnc12,3.2,,
CCNc1nc2ccc(F)cc2n2c(C(F)(F)F)nnc12,3.2,0.23,14
CCc1nnc2c(N(CC)C(C)=O)nc3ccccc3n12,≤ 32,,
CC(=O)N(C(C)=O)c1nc2ccc(Cl)cc2n2cnnc12,≤ 32,,
CCN(CC)c1nc2ccccc2n2c(C(C)C)nnc12,≤ 32,19,
CCN(CC)c1nc2ccc(F)cc2n2cnnc12,3.2,> 10,
CCNc1nc2cc(F)ccc2n2cnnc12,32,11,26
COc1ccc2c(c1)nc(NC(C)C)c1nncn12,> 32,,
CCNc1nc2cc(F)c(F)cc2n2cnnc12,3.2,4.7,
CCc1nnc2c(N(CC)CC)nc3ccc(OC)cc3n12,≤ 32,,
CC(C)Nc1nc2ccc(F)cc2n2c(O)nnc12,> 32,0.73,3.5
CC(=O)Nc1nc2ccccc2n2cnnc12,≤ 32,,
CCNc1nc2ccc(F)cc2n2cnnc12,3.2,3.2,17
CCN(CC)c1nc2ccccc2n2c(C)nnc12,3.2,> 10,
